The record followed here is patent US20240201204A1, “Biomarker and Druggable Target of Neurodegeneration” (University Hospitals Cleveland Medical Center, priority 2020, published 2024).

Common to all, as to format: in vivo, mouse
Settings in all cases: vs. TBI+Vehicle

The subject of one assay is tau. The experiment in a line: Tau mislocalization after TBI (tau and NeuN immunohistochemistry). The procedure:
(§1) Drug preparation and administration: CGP3466B (Sigma-Aldrich, SML1941) was dissolved in DMSO and then diluted in sterile saline. The final working stock was 0.0014 mg/ml for administering the 0.014 mg/kg dose. Intraperitoneal administration of CGP3466B was initiated 15 min or 24 h after injury, and tissues were harvested 6 h (for SNO-GAPDH, SNO-SIRT1 measurement) or 2 weeks (for ac-tau measurement) later, respectively. Salsalate (AdipoGen, AG-CR1-3574) was dissolved in DMSO and then diluted in sterile PBS. The final working stocks were as follows: 2.5 mg/ml (25 mg/kg dose), 1 mg/ml (10 mg/kg dose), 0.5 mg/ml (5 mg/kg dose). Daily intraperitoneal administration of salsalate was initiated 24 hr after injury and continued throughout behavioral testing. P7C3-A20 and FK866 (Sigma-Aldrich, F8557) were first dissolved in 1 vol of DMSO, followed by addition of 4 vol of Kolliphor and vigorously vortexing. The solution was then diluted with 30 vol of filtered 5% dextrose (pH 7.0). EX527 (Selleckchem, S1541) was dissolved in 1% DMSO+30% polyethylene glycol+1% Tween 80. Daily intraperitoneal administration of P7C3-A20 was initiated 24 hr after poly-traumatic brain injury. EX527 (10 mg/kg) was administer once a day and FK866 was treated twice per day, with the first injection given at the same time as P7C3-A20 (20 mg/kg) and the second injection given 6 h later (LoCoco et al., 2017 eLife). Diflunisal was first dissolved in 1 vol of DMSO, followed by addition of 2 vol of Kolliphor and vigorously vortexing. The solution was then diluted with 7 vol of saline to the appropriate concentration for administration at 25, 50, or 100 mg/kg.
(§2) The pressure in the side not containing the mouse was increased to cause membrane rupture at 20 pounds per square inch (PSI), which generates an about 1-2 ms jet airflow of 137.9+/−13.79 kPa that passes through the animal's head. The head remains untethered in a padded holder, while the body is fully shielded by a metal tube. The jet of air produced upon membrane rupture provides a concussive injury, which is followed by acceleration/deceleration of the head and then exposure to the ensuing blast wave within an enclosed space.
Immunohistochemistry: Mice were transcardially perfused with cold 1× phosphate-buffered saline (PBS) followed by 4% paraformaldehyde in PBS at pH 7.4 under anesthesia. Brains were carefully removed and post-fixed in 4% paraformaldehyde overnight at 4° C. Brains were immersed in 30% sucrose in PBS for 72 h at 4° C. and then rapidly frozen in 2-methylbutane pre-cooled to −20° C. with dry ice. Brains were cut coronally (40 μm) and sections were stored in cryoprotective solution (150 mM Ethylene glycol, 100 mM glycerol, 250 mM PBS) at −20° C. […]

The next assay deals with axon initial segment. The assay can be described thus: Axon initial segment (AIS) degradation after TBI (AnkG, βIV-spectrin staining). The procedure:
as §1, §2
Immunohistochemistry: Mice were transcardially perfused with cold 1× phosphate-buffered saline (PBS) followed by 4% paraformaldehyde in PBS at pH 7.4 under anesthesia. Brains were carefully removed and post-fixed in 4% paraformaldehyde overnight at 4° C. Brains were immersed in 30% sucrose in PBS for 72 h at 4° C. and then rapidly frozen in 2-methylbutane pre-cooled to −20° C. with dry ice. Brains were cut coronally (40 μm) and sections were stored in cryoprotective solution (150 mM Ethylene glycol, 100 mM glycerol, 250 mM PBS) at −20° C. For tau and NeuN staining, sections were washed three times with PBS for 5 min and then treated with 0.2% Triton X-100 in PBS for 15 min. Sections were washed with PBS and then incubated with 100 mM glycine for 15 min. After blocking sections using blocking buffer (1% bovine serum albumin, 10% normal goat serum, 0.3 M glycine) for 30 min, primary antibodies (Tau, Invitrogen, #13-6400, 1:100, NeuN, EMD Millipore Cor., #MABN-140, 1:500) were incubated overnight at 4° C. Sections were washed three times with PBS (5 min each) and then incubated with Alexa Fluor 488 goat anti-mouse (Invitrogen, A11001, 1:200) or Alexa Fluor 568 goat anti-rabbit (Life technologies, A11011, 1:200) at room temperature for 2 h. […]

Another assay has as its system p300/CBP. The experiment in a line: p300/CBP activity after TBI (acetylation of p300/CBP, H2AK5, H3K18; western blot). The method, then:
as §1, §2
Western blotting: Western blotting was performed as described previously (Min et al., 2010), with the 9AB antibody against acetylated-tau generated in the Gan laboratory. […] Lysates were centrifuged at 170,000 g at 4° C. for 15 min and at 18,000 g at 4° C. for 10 min, after which protein concentrations of supernatants were measured by bicinchoninic acid assay (Thermo Scientific, A53225). […]

The test system of the next assay is degenerating axons. The assay can be described thus: Axon degeneration after TBI (silver staining). The method, then:
as §1, with “Diflunisal was first dissolved in 1 vol of DMSO, followed by addition of 2 vol of Kolliphor and vigorously vortexing. The solution was then diluted with 7 vol of saline to the appropriate concentration for administration at 25, 50, or 100 mg/kg.” left out

The mark [1] stands for this setting: low-dose salsalate daily IP from 24 h after TBI.

Turning to `C#CCN(C)CC1=Cc2ccccc2Oc2ccccc21.O=C(O)/C=C\C(=O)O` [CGP3466B], the post-TBI tau mislocalization result in the assay on tau (CGP3466B 0.014 mg/kg IP daily, initiated 24 hours after TBI) is on record as “protects mice from post-TBI tau mislocalization”. Besides, in the assay on axon initial segment (CGP3466B 0.014 mg/kg IP daily), the “post-TBI AIS degradation, cerebral cortex” value is recorded as “protects mice from post-TBI AIS degradation in the cerebral cortex” and the “post-TBI AIS degradation, hippocampus” value was “protects mice from post-TBI AIS degradation in the hippocampus”. Moreover, the “ac-p300/CBP in cerebral cortex” value in the assay with p300/CBP (CGP3466B 0.014 mg/kg, after TBI) is on record as “reduces ac-p300/CBP in cerebral cortex after TBI”. Further, the “post-TBI axon degeneration (silver staining)” value in the assay with degenerating axons (CGP3466B 0.014 mg/kg IP daily) is given as “protects mice from post-TBI axon degeneration”.

As to `O=C(Oc1ccccc1C(=O)O)c1ccccc1O` [salsalate], the post-TBI tau mislocalization entry with tau (setting [1]) was “protects mice from post-TBI tau mislocalization”. Further, the “post-TBI AIS degradation” value in the assay with axon initial segment (setting [1]) is given as “protects mice from post-TBI AIS degradation”. In the assay with p300/CBP (low-dose salsalate after TBI), the “ac-H2AK5 levels in cerebral cortex and hippocampus” value was “significantly reduced levels of ac-H2AK5 and ac-H3K18”; the “ac-H3K18 levels in cerebral cortex and hippocampus” value was “significantly reduced levels of ac-H2AK5 and ac-H3K18”; the “acetylation of p300/CBP” value is recorded as “acetylation of p300/CBP was also significantly reduced”. In addition, in the assay with degenerating axons (setting [1]), the post-TBI axonal degeneration result is on record as “protects mice from post-TBI axonal degeneration”.
